In US4039660A, “Antibiotic Y-G19Z D3 and the production thereof” (Yamanouchi Pharmaceutical Co., Ltd., priority 1974, dated 1977):

Legend:
Assay in all cases: Inhibition zone, disc on seeded Heart infusion agar
Format in all cases: cell-based
[1] = system: Staphylococcus aureus 209 P; details: disc dipped in 125 mcg/ml solution, read-out: diameter of the inhibition zone
Excerpt: (§1) Antimicrobial activities of Y-G19ZD3 in comparison with those of Cephalosporin C against various microorganisms are shown in Table 3. The figure indicates the diameter (mm) of the inhibition zone obtained with a disc dipped in 125 mcg/ml solution on Heart infusion agar seeded with each organism.

[2] = system: Proteus vulgaris; details: disc dipped in 125 mcg/ml solution, read-out: diameter of the inhibition zone
Excerpt: as §1

[3] = system: Proteus morganii; details: Morganella morganii, disc dipped in 125 mcg/ml solution, read-out: diameter of the inhibition zone
Excerpt: as §1

[4] = system: Klebsiella pneumoniae; details: disc dipped in 125 mcg/ml solution, read-out: diameter of the inhibition zone
Excerpt: as §1

[5] = system: Basillus subtilis ATCC 6633; details: read-out: diameter of the inhibition zone
Excerpt: as §1

[6] = system: Proteus mirabilis IMF-OM9; details: IMFOM9, read-out: diameter of the inhibition zone
Excerpt: as §1

[7] = system: Sarcina lutea ATCC 9941; details: Micrococcus luteus, ATCC9941, read-out: diameter of the inhibition zone
Excerpt: as §1

CC(=O)OCC1=C(C(=O)O)N2C(=O)[C@@H](NC(=O)CCC[C@@H](N)C(=O)O)[C@H]2SC1 [Cephalosporin C]
zone of inhibition at 125 µg/mL [1]: 0 mm | zone of inhibition at 125 µg/mL [2]: 0 mm | zone of inhibition at 125 µg/mL [3]: 0 mm | zone of inhibition at 125 µg/mL [4]: 0 mm | zone of inhibition at 125 µg/mL [5]: 13.5 mm | zone of inhibition at 125 µg/mL [6]: 17.6 mm | zone of inhibition at 125 µg/mL [7]: 0 mm
